Experimental data: ChEMBL document CHEMBL4308841, “Synthesis, in vitro antiproliferative activity, and kinase inhibitory effects of pyrazole-containing diarylureas and diarylamides” (Eur J Med Chem, 2018)

Columns and labels:
UO-31 = assay: Growth inhibition of human UO31 cells assessed as cell growth at 0.1 uM incubated for 48 hrs by sulforhodamine B assay relative to control; type: functional; details: UO-31, 48 h, read-out: Activity
OVCAR-8 = assay: Growth inhibition of human OVCAR8 cells assessed as cell growth at 1 uM incubated for 48 hrs by sulforhodamine B assay relative to control; type: functional; details: OVCAR-8, 48 h, read-out: Activity
NCI-H522 = assay: Growth inhibition of human NCI-H522 cells assessed as cell growth at 100 uM incubated for 48 hrs by sulforhodamine B assay relative to control; type: functional; details: NCI-H522, 48 h, read-out: Activity
UACC-62 [1] = assay: Growth inhibition of human UACC62 cells incubated for 48 hrs by sulforhodamine B assay; type: functional, cell-based; details: UACC-62, 48 h
SK-MEL-5 [2] = assay: Growth inhibition of human SK-MEL-5 cells assessed as cell growth at 1 uM incubated for 48 hrs by sulforhodamine B assay relative to control; type: functional; details: SK-MEL-5, 48 h, read-out: Activity
RPMI-8226 = assay: Growth inhibition of human RPMI8226 cells assessed as cell growth at 1 uM incubated for 48 hrs by sulforhodamine B assay relative to control; type: functional; details: RPMI-8226, 48 h, read-out: Activity
A498 [3] = assay: Growth inhibition of human A498 cells assessed as cell growth at 1 uM incubated for 48 hrs by sulforhodamine B assay relative to control; type: functional; details: A498, 48 h, read-out: Activity
MDA-MB-468 = assay: Growth inhibition of human MDA-MB-468 cells assessed as cell growth at 100 uM incubated for 48 hrs by sulforhodamine B assay relative to control; type: functional; details: MDA-MB-468, 48 h, read-out: Activity
SK-MEL-5 [4] = assay: Growth inhibition of human SK-MEL-5 cells assessed as cell growth at 0.1 uM incubated for 48 hrs by sulforhodamine B assay relative to control; type: functional; details: SK-MEL-5, 48 h, read-out: Activity
SN12C [5] = assay: Growth inhibition of human SN12C cells assessed as cell growth at 100 uM incubated for 48 hrs by sulforhodamine B assay relative to control; type: functional; details: read-out: Activity
OVCAR-5 [6] = assay: Growth inhibition of human OVCAR5 cells assessed as cell growth at 0.01 uM incubated for 48 hrs by sulforhodamine B assay relative to control; type: functional; details: OVCAR-5, 48 h, read-out: Activity
PC-3 = assay: Growth inhibition of human PC3 cells assessed as cell growth at 1 uM incubated for 48 hrs by sulforhodamine B assay relative to control; type: functional; details: PC-3, 48 h, read-out: Activity
SK-MEL-5 [7] = assay: Growth inhibition of human SK-MEL-5 cells incubated for 48 hrs by sulforhodamine B assay; type: functional, cell-based; details: SK-MEL-5, 48 h
SK-MEL-5 [8] = assay: Growth inhibition of human SK-MEL-5 cells assessed as cell growth at 0.01 uM incubated for 48 hrs by sulforhodamine B assay relative to control; type: functional; details: SK-MEL-5, 48 h, read-out: Activity
Malme-3M = assay: Growth inhibition of human MALME-3M cells incubated for 48 hrs by sulforhodamine B assay; type: functional, cell-based
COLO 205 = assay: Growth inhibition of human COLO205 cells incubated for 48 hrs by sulforhodamine B assay; type: functional, cell-based; details: COLO 205, 48 h
OVCAR-5 [9] = assay: Growth inhibition of human OVCAR5 cells assessed as cell growth at 100 uM incubated for 48 hrs by sulforhodamine B assay relative to control; type: functional; details: OVCAR-5, 48 h, read-out: Activity
MOLT-4 = assay: Growth inhibition of human MOLT4 cells assessed as cell growth at 0.01 uM incubated for 48 hrs by sulforhodamine B assay relative to control; type: functional; details: MOLT-4, 48 h, read-out: Activity
SF-268 = assay: Growth inhibition of human SF268 cells assessed as cell growth at 0.01 uM incubated for 48 hrs by sulforhodamine B assay relative to control; type: functional; details: SF-268, 48 h, read-out: Activity
UACC-62 [10] = assay: Growth inhibition of human UACC62 cells assessed as cell growth at 0.1 uM incubated for 48 hrs by sulforhodamine B assay relative to control; type: functional; details: UACC-62, 48 h, read-out: Activity
ACHN = assay: Growth inhibition of human ACHN cells incubated for 48 hrs by sulforhodamine B assay; type: functional, cell-based
HCT-15 [11] = assay: Growth inhibition of human HCT15 cells assessed as cell growth at 1 uM incubated for 48 hrs by sulforhodamine B assay relative to control; type: functional; details: HCT-15, 48 h, read-out: Activity
HCT-15 [12] = assay: Growth inhibition of human HCT15 cells incubated for 48 hrs by sulforhodamine B assay; type: functional, cell-based; details: HCT-15, 48 h
M14 = assay: Growth inhibition of human M14 cells assessed as cell growth at 1 uM incubated for 48 hrs by sulforhodamine B assay relative to control; type: functional; details: M14, 48 h, read-out: Activity
OVCAR-4 = assay: Growth inhibition of human OVCAR4 cells assessed as cell growth at 1 uM incubated for 48 hrs by sulforhodamine B assay relative to control; type: functional; details: OVCAR-4, 48 h, read-out: Activity
LOX IMVI = assay: Growth inhibition of human LOXIMVI cells assessed as cell growth at 0.1 uM incubated for 48 hrs by sulforhodamine B assay relative to control; type: functional; details: read-out: Activity
A498 [13] = assay: Growth inhibition of human A498 cells assessed as cell growth at 0.1 uM incubated for 48 hrs by sulforhodamine B assay relative to control; type: functional; details: A498, 48 h, read-out: Activity
NCI-H23 = assay: Growth inhibition of human NCI-H23 cells assessed as cell growth at 1 uM incubated for 48 hrs by sulforhodamine B assay relative to control; type: functional; details: NCI-H23, 48 h, read-out: Activity
SN12C [14] = assay: Growth inhibition of human SN12C cells assessed as cell growth at 0.1 uM incubated for 48 hrs by sulforhodamine B assay relative to control; type: functional; details: read-out: Activity
CCRF-CEM = assay: Growth inhibition of human CCRF-CEM cells assessed as cell growth at 100 uM incubated for 48 hrs by sulforhodamine B assay relative to control; type: functional; details: read-out: Activity
[15] = read-out: LC50 (the source's name)
[16] = read-out: pLC50 (the source's name) (converted)

## O=C(Nc1cccc(-n2cc(-c3ccncc3)c(-c3cc(O)cc(Cl)c3)n2)c1)Nc1ccc(Cl)c(Cl)c1
UO-31
  growth at 0.1 µM: 93%
OVCAR-8
  growth at 1 µM: 56%
NCI-H522
  growth at 100 µM: -55%
UACC-62 [1]
  IC50: 1690 nM
UACC-62 [1]; read-out: GI50
  GI50: 1590 nM
UACC-62 [1]; [15]
  CC50: 5.38 µM
UACC-62 [1]; read-out: TGI
  TGI: 37.6 µM
UACC-62 [1]; read-out: pGI50 (converted)
  GI50: 1700 nM
UACC-62 [1]; [16]
  CC50: 8.32 µM
UACC-62 [1]; read-out: pTGI (converted)
  TGI: 3.72 µM
SK-MEL-5 [2]
  growth at 1 µM: 86%
RPMI-8226
  growth at 1 µM: 57%
A498 [3]
  growth at 1 µM: 75%
MDA-MB-468
  growth at 100 µM: -17%
SK-MEL-5 [4]
  growth at 0.1 µM: 92%
SN12C [5]
  growth at 100 µM: -15%
OVCAR-5 [6]
  growth at 0.01 µM: 53%
PC-3
  growth at 1 µM: 72%
SK-MEL-5 [7]; read-out: GI50
  GI50: 1520 nM
SK-MEL-5 [7]; [15]
  CC50: 5.75 µM
SK-MEL-5 [7]; read-out: TGI
  TGI: 30.4 µM
SK-MEL-5 [7]; read-out: pGI50 (converted)
  GI50: 1620 nM
SK-MEL-5 [7]; [16]
  CC50: 5.75 µM
SK-MEL-5 [7]; read-out: pTGI (converted)
  TGI: 3.02 µM
SK-MEL-5 [8]
  growth at 0.01 µM: 95%
Malme-3M; read-out: GI50
  GI50: 1000 nM
Malme-3M; [15]
  CC50: > 100 µM
Malme-3M; read-out: TGI
  TGI: 54 µM
Malme-3M; read-out: pGI50 (converted)
  GI50: 1780 nM
Malme-3M; [16]
  CC50: > 100 µM
Malme-3M; read-out: pTGI (converted)
  TGI: 5.25 µM
COLO 205; read-out: GI50
  GI50: 1960 nM
COLO 205; [15]
  CC50: 7.29 µM
COLO 205; read-out: TGI
  TGI: 37.8 µM
COLO 205; read-out: pGI50 (converted)
  GI50: 1950 nM
COLO 205; [16]
  CC50: 7.24 µM
COLO 205; read-out: pTGI (converted)
  TGI: 3.8 µM
OVCAR-5 [9]
  growth at 100 µM: -80%
MOLT-4
  growth at 0.01 µM: 93%
SF-268
  growth at 0.01 µM: 94%
UACC-62 [10]
  growth at 0.1 µM: 99%
ACHN; read-out: GI50
  GI50: 2210 nM
ACHN; [15]
  CC50: > 100 µM
ACHN; read-out: TGI
  TGI: 67.1 µM
ACHN; read-out: pGI50 (converted)
  GI50: 2190 nM
ACHN; [16]
  CC50: > 100 µM
ACHN; read-out: pTGI (converted)
  TGI: 8.91 µM
HCT-15 [11]
  growth at 1 µM: 75%
HCT-15 [12]; read-out: GI50
  GI50: 2100 nM
HCT-15 [12]; [15]
  CC50: > 100 µM
HCT-15 [12]; read-out: TGI
  TGI: 80.4 µM
HCT-15 [12]; read-out: pGI50 (converted)
  GI50: 2090 nM
HCT-15 [12]; [16]
  CC50: > 100 µM
HCT-15 [12]; read-out: pTGI (converted)
  TGI: 8.13 µM
M14
  growth at 1 µM: 72%
OVCAR-4
  growth at 1 µM: 100%
LOX IMVI
  growth at 0.1 µM: 105%
A498 [13]
  growth at 0.1 µM: 94%
NCI-H23
  growth at 1 µM: 96%
SN12C [14]
  growth at 0.1 µM: 95%

## COc1cc(Cl)cc(-c2nn(-c3cccc(NC(=O)Nc4ccc(Cl)c(Cl)c4)c3)cc2-c2ccncc2)c1
OVCAR-8
  growth at 1 µM: 78%
NCI-H522
  growth at 100 µM: -15%
UACC-62 [1]
  IC50: 2400 nM
UACC-62 [1]; read-out: GI50
  GI50: 2400 nM
UACC-62 [1]; [15]
  CC50: > 100 µM
UACC-62 [1]; read-out: TGI
  TGI: 16.3 µM
UACC-62 [1]; read-out: pGI50 (converted)
  GI50: 2400 nM
UACC-62 [1]; [16]
  CC50: > 100 µM
UACC-62 [1]; read-out: pTGI (converted)
  TGI: 16.2 µM
SK-MEL-5 [2]
  growth at 1 µM: 88%
RPMI-8226
  growth at 1 µM: 39%
A498 [3]
  growth at 1 µM: 73%
MDA-MB-468
  growth at 100 µM: -18%
SK-MEL-5 [4]
  growth at 0.1 µM: 96%
SN12C [5]
  growth at 100 µM: 5%
OVCAR-5 [6]
  growth at 0.01 µM: 93%
CCRF-CEM
  growth at 100 µM: -27%
PC-3
  growth at 1 µM: 54%
SK-MEL-5 [7]; read-out: GI50
  GI50: 1520 nM
SK-MEL-5 [7]; [15]
  CC50: 6.23 µM
SK-MEL-5 [7]; read-out: TGI
  TGI: 31.7 µM
SK-MEL-5 [7]; read-out: pGI50 (converted)
  GI50: 1620 nM
SK-MEL-5 [7]; [16]
  CC50: 6.17 µM
SK-MEL-5 [7]; read-out: pTGI (converted)
  TGI: 3.16 µM
SK-MEL-5 [8]
  growth at 0.01 µM: 95%
Malme-3M; read-out: GI50
  GI50: 2060 nM
Malme-3M; [15]
  CC50: > 100 µM
Malme-3M; read-out: TGI
  TGI: 75.5 µM
Malme-3M; read-out: pGI50 (converted)
  GI50: 2040 nM
Malme-3M; [16]
  CC50: > 100 µM
Malme-3M; read-out: pTGI (converted)
  TGI: 7.94 µM
COLO 205; read-out: GI50
  GI50: 1710 nM
COLO 205; [15]
  CC50: 6.4 µM
COLO 205; read-out: TGI
  TGI: 33.1 µM
COLO 205; read-out: pGI50 (converted)
  GI50: 1700 nM
COLO 205; [16]
  CC50: 6.46 µM
COLO 205; read-out: pTGI (converted)
  TGI: 3.31 µM
OVCAR-5 [9]
  growth at 100 µM: 9%
MOLT-4
  growth at 0.01 µM: 99%
SF-268
  growth at 0.01 µM: 95%
UACC-62 [10]
  growth at 0.1 µM: 97%
ACHN; read-out: GI50
  GI50: 3230 nM
ACHN; [15]
  CC50: > 100 µM
ACHN; read-out: TGI
  TGI: > 100 µM
ACHN; read-out: pGI50 (converted)
  GI50: 3240 nM
ACHN; [16]
  CC50: > 100 µM
ACHN; read-out: pTGI (converted)
  TGI: > 100 µM
HCT-15 [11]
  growth at 1 µM: 77%
HCT-15 [12]; read-out: GI50
  GI50: 2510 nM
HCT-15 [12]; [15]
  CC50: > 100 µM
HCT-15 [12]; read-out: TGI
  TGI: 31.5 µM
HCT-15 [12]; read-out: pGI50 (converted)
  GI50: 2510 nM
HCT-15 [12]; [16]
  CC50: > 100 µM
HCT-15 [12]; read-out: pTGI (converted)
  TGI: 31.6 µM
M14
  growth at 1 µM: 82%
OVCAR-4
  growth at 1 µM: 83%
LOX IMVI
  growth at 0.1 µM: 94%
A498 [13]
  growth at 0.1 µM: 58%
NCI-H23
  growth at 1 µM: 89%
SN12C [14]
  growth at 0.1 µM: 100%
